Reference: the supplement of paper PMC10307832

How the values were obtained:
Assay in all cases: relative viability (nuclei count vs DMSO), 5 days (fraction); higher = more cells survive
Bexarotene + Decitabine = compound: C=C(c1ccc(C(=O)O)cc1)c1cc2c(cc1C)C(C)(C)CCC2(C)C [Bexarotene] + Nc1ncn([C@H]2C[C@H](O)[C@@H](CO)O2)c(=O)n1 [Decitabine] (partner 2 µM)
Outline: (§1)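 After 5 days of treatment, lung cancer cells in 1536-well plates were fixed and stained in a single step (final 0.05% Triton X-100, 1% formaldehyde, 1 ug/ml Hoechst) and their nuclei counted on 4× images. Treatment had been applied by pin tool the day after seeding as one drug alone or as a fixed anchor-drug dose with five library-drug doses (not always all listed) in √10 steps. Relative viability is the nuclei count of treated wells divided by that of vehicle wells, and values are medians of duplicate plates.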

Bexarotene + Palbociclib = compound: C=C(c1ccc(C(=O)O)cc1)c1cc2c(cc1C)C(C)(C)CCC2(C)C [Bexarotene] + CC(=O)c1c(C)c2cnc(Nc3ccc(N4CCNCC4)cn3)nc2n(C2CCCC2)c1=O [Palbociclib] (partner 0.5 µM)
Outline: as §1

Bexarotene + Phenformin = compound: C=C(c1ccc(C(=O)O)cc1)c1cc2c(cc1C)C(C)(C)CCC2(C)C [Bexarotene] + N=C(N)NC(=N)NCCc1ccccc1 [Phenformin] (partner 250 µM)
Outline: as §1

Bexarotene + Pictilisib = compound: C=C(c1ccc(C(=O)O)cc1)c1cc2c(cc1C)C(C)(C)CCC2(C)C [Bexarotene] + CS(=O)(=O)N1CCN(Cc2cc3nc(-c4cccc5[nH]ncc45)nc(N4CCOCC4)c3s2)CC1 [Pictilisib] (partner 1 µM)
Outline: as §1

| Cell Line | relative viability (Bexarotene + Decitabine; first compound 0.08 µM) | relative viability (Bexarotene + Decitabine; first compound 0.253 µM) | relative viability (Bexarotene + Decitabine; first compound 0.8 µM) | relative viability (Bexarotene + Decitabine; first compound 2.53 µM) | relative viability (Bexarotene + Decitabine; first compound 8 µM) | relative viability (Bexarotene + Palbociclib; first compound 0.08 µM) | relative viability (Bexarotene + Palbociclib; first compound 0.253 µM) | relative viability (Bexarotene + Palbociclib; first compound 0.8 µM) | relative viability (Bexarotene + Palbociclib; first compound 2.53 µM) | relative viability (Bexarotene + Palbociclib; first compound 8 µM) | relative viability (Bexarotene + Phenformin; first compound 0.08 µM) | relative viability (Bexarotene + Phenformin; first compound 0.253 µM) | relative viability (Bexarotene + Phenformin; first compound 0.8 µM) | relative viability (Bexarotene + Phenformin; first compound 2.53 µM) | relative viability (Bexarotene + Phenformin; first compound 8 µM) | relative viability (Bexarotene + Pictilisib; first compound 0.08 µM) | relative viability (Bexarotene + Pictilisib; first compound 0.253 µM) | relative viability (Bexarotene + Pictilisib; first compound 0.8 µM) | relative viability (Bexarotene + Pictilisib; first compound 2.53 µM) | relative viability (Bexarotene + Pictilisib; first compound 8 µM) |
| --- | --- | --- | --- | --- | --- | --- | --- | --- | --- | --- | --- | --- | --- | --- | --- | --- | --- | --- | --- | --- |
| SK-MES-1 | 0.43 | 0.379 | 0.423 | 0.294 | 0.3 | 0.347 | 0.352 | 0.314 | 0.313 | 0.267 | 0.751 | 0.717 | 0.67 | 0.615 | 0.558 | 0.397 | 0.408 | 0.466 | 0.329 | 0.399 |
| NCI-H1666 | 0.813 | 0.696 | 0.773 | 0.689 | 0.693 | 0.618 | 0.746 | 0.545 | 0.631 | 0.565 | 0.611 | 0.531 | 0.525 | 0.581 | 0.561 | 0.256 | 0.337 | 0.359 | 0.58 | 0.459 |
| NCI-H1355 | 0.379 | 0.332 | 0.416 | 0.388 | 0.346 | 0.422 | 0.387 | 0.384 | 0.446 | 0.434 | 0.467 | 0.481 | 0.433 | 0.404 | 0.447 | 0.604 | 0.622 | 0.358 | 0.561 | 0.486 |
| HCC-827 | 0.396 | 0.311 | 0.33 | 0.298 | 0.335 | 0.508 | 0.497 | 0.466 | 0.482 | 0.497 | 0.51 | 0.444 | 0.493 | 0.463 | 0.444 | 1.07 | 1.08 | 0.888 | 1.02 | 0.971 |
| HARA | 0.618 | 0.637 | 0.535 | 0.633 | 0.514 | 0.269 | 0.239 | 0.243 | 0.294 | 0.277 | 0.523 | 0.448 | 0.375 | 0.398 | 0.39 | 0.407 | 0.317 | 0.377 | 0.32 | 0.41 |
| HCC-366 | 0.36 | 0.376 | 0.339 | 0.346 | 0.289 | 0.424 | 0.42 | 0.365 | 0.416 | 0.4 | 0.624 | 0.608 | 0.579 | 0.533 | 0.597 | 0.23 | 0.178 | 0.165 | 0.141 | 0.29 |
| NCI-H322M | 0.68 | 0.748 | 0.655 | 0.678 | 0.731 | 0.437 | 0.469 | 0.487 | 0.531 | 0.532 | 0.969 | 0.825 | 0.814 | 0.775 | 0.789 | 0.573 | 0.408 | 0.544 | 0.514 | 0.502 |
| NCI-H2347 | 0.621 | 0.705 | 0.606 | 0.686 | 0.565 | 0.465 | 0.413 | 0.343 | 0.368 | 0.426 | 0.361 | 0.434 | – | 0.376 | 0.353 | 0.597 | 0.62 | 0.461 | 0.743 | 0.605 |
| NCI-H1975 | 0.359 | 0.393 | 0.443 | 0.406 | 0.392 | 0.667 | 0.578 | 0.575 | 0.616 | 0.547 | 0.492 | 0.419 | 0.436 | 0.446 | 0.407 | 0.361 | 0.347 | 0.319 | 0.342 | 0.386 |
| UMC-11 | 0.605 | 0.589 | 0.604 | 0.634 | 0.539 | 0.308 | 0.355 | 0.316 | 0.267 | 0.339 | 0.372 | 0.327 | 0.314 | 0.301 | 0.295 | 0.973 | 0.814 | 0.756 | 0.805 | 0.802 |
| ABC-1 | 1.21 | 0.927 | 1.12 | – | 1.09 | 0.617 | 0.676 | 0.662 | – | 0.655 | 0.239 | 0.225 | 0.215 | 0.303 | 0.285 | 0.662 | 0.63 | 0.606 | 0.697 | 0.615 |
| A-427 | 0.57 | 0.461 | 0.435 | 0.477 | 0.533 | 0.48 | 0.47 | 0.467 | 0.444 | 0.487 | 0.322 | 0.305 | 0.348 | 0.3 | 0.307 | 0.79 | 0.667 | 0.613 | 0.537 | 0.569 |
| LCLC-97TM1 | 0.282 | 0.224 | 0.227 | 0.189 | 0.21 | 0.211 | 0.245 | 0.168 | 0.177 | 0.185 | 0.473 | 0.438 | 0.406 | 0.454 | 0.451 | 0.265 | 0.188 | 0.209 | 0.214 | 0.213 |
| HCC-15 | 0.762 | 0.72 | 0.611 | 0.588 | 0.568 | 0.779 | 0.925 | 0.753 | 0.794 | 0.726 | 0.524 | 0.533 | 0.472 | 0.496 | 0.475 | 0.798 | 0.743 | 0.656 | 0.644 | 0.632 |
| NCI-H647 | 0.439 | 0.394 | 0.412 | 0.419 | 0.335 | 0.467 | 0.358 | 0.443 | 0.367 | 0.369 | 0.588 | 0.472 | 0.519 | 0.53 | 0.43 | 0.378 | 0.356 | 0.429 | – | 0.358 |
| SW 1573 | 0.505 | 0.43 | 0.482 | 0.452 | 0.363 | 0.362 | 0.327 | 0.378 | 0.354 | 0.288 | 0.374 | 0.328 | 0.332 | 0.273 | 0.297 | 0.554 | 0.459 | 0.447 | 0.42 | 0.436 |
| NCI-H1651 | 0.77 | 0.548 | 0.66 | 0.638 | 0.618 | 0.531 | 0.521 | 0.533 | 0.537 | 0.534 | 0.446 | 0.318 | 0.307 | 0.357 | 0.345 | 0.837 | 0.52 | 0.723 | 0.674 | 0.593 |
